Consider 59 molecules from the METLIN SMRT retention time set (Domingo-Almenara et al. 2019).

The nature of this data set: gradient 5% acetonitrile 3 min, to 50% in 2 min, to 85% in 15 min, held 3 min, 100 µL/min. To be noted: column: Zorbax Extend-C18 2.1 x 50 mm; eluents: water / acetonitrile, 0.1% formic acid. The essentials:
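Each retention time is based on an adduct peak selected computationally and verified by manual inspection. Measurements used HPLC–quadrupole time-of-flight mass spectrometry in positive and negative ionization mode on mixtures of ~100 pure standards. Chromatography ran on a Zorbax Extend-C18 column (2.1 × 50 mm, 1.8 μm) at 100 μL/min with water and acetonitrile, each containing 0.1% formic acid, and dead and dwell volumes of 40 μL and 900 μL.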
As to `O=C(c1nc(Cn2nc(-c3ccc(F)cc3)ccc2=O)no1)N1CCC2(CC1)OCCO2`, the RP-LC retention time is 783 s.
With `COc1ccc(Br)cc1C1C(C(=O)N2CCOCC2)=C(C)NC2=C1C(=O)CCC2` (centres undefined), the RP-LC retention time was determined as 660 s.
Under `O=C(NC1CCCCCC1)C1CCN(Cc2cc3ccccc3n2Cc2ccccc2Cl)CC1` stands 899 s; under `CC(=O)Nc1nc(N2CCC(C(=O)NCc3ccccc3)CC2)sc1C(=O)N1CCCC1`, 699 s; under `CCc1nc2oc3cc(OC)ccc3c(=O)c2c(=O)n1-c1ccc(C)cc1`, 809 s.
Take `Cc1ccc(C)c(N2CCN(C(=O)C3CCCN(c4nc5ccccc5n(C)c4=O)C3)CC2)c1` (centres undefined): the RP-LC retention time worked out at 1280 s.
Under `CN(C)CCNC(=O)C1CCN(c2ccc3nnc(-c4ccccc4Cl)n3n2)CC1` stands 589 s; under `Cc1ccc(CNC(=O)NC2CCN(c3nc4cccnc4n(C)c3=O)CC2)cc1`, 860 s; under `CC1=C(C(=O)Nc2cc(Cl)ccc2C(=O)NC(C)c2ccccc2)SCCO1` (centres undefined), 1070 s.
In the case of `CCCNS(=O)(=O)c1cc(-c2cc(C(F)(F)F)on2)sc1C`, the RP-LC retention time amounted to 1090 s.
As for `CCCC(=O)NC1CCN(c2ccccc2)C1=O` (centres undefined), the figure is 660 s.
As for `CCC1CN(C(=O)N2CCC(C(=O)NCCc3ccco3)CC2)c2ccccc2O1` (centres undefined), the figure is 852 s.
Under `COc1cc(C)c(C)cc1S(=O)(=O)NCC1CCN(c2ncccn2)CC1` stands 806 s; under `Cc1ccc(NC(=O)C2C(=O)NC3(C)CC2c2ccccc2O3)c(C)c1` (centres undefined), 912 s.
As for `CCOc1nc2ccccc2nc1N1CCCC(C(=O)N2CCc3ccccc3C2)C1` (centres undefined), the RP-LC retention time was 1310 s.
Molecule `CC(C)(C)c1ccc(C(=O)NCCCn2ncccc2=O)cc1` returned an RP-LC retention time of 731 s.
As for `CCN1CCN(c2c(S(=O)(=O)c3ccc(Cl)cc3)cnc3cc(OC)c(OC)cc23)CC1`, the figure is 634 s; as for `Cc1ccsc1C(=O)N1CCC2(CCCCO2)CC1`, 780 s.
As to `O=C(Cc1ccccc1Cl)N1CCCN(c2nc3cccnc3o2)CC1`, the RP-LC retention time turned out to be 716 s.
As for `CCn1c(=O)sc2cc(S(=O)(=O)N3CCC(C(=O)N4CCCC4)CC3)ccc21`, the figure is 761 s; as for `O=C(c1cccc(Br)c1)N1CCc2nc[nH]c2C1`, 595 s.
Under `O=C(c1cc(S(=O)(=O)N2CCCC(C(=O)N3CCCCCC3)C2)c[nH]1)N1CCCCCC1` (centres undefined) stands 824 s; under `Cc1nn(Cc2ccc(C(=O)NC3CC3)cc2)c(C)c1S(=O)(=O)N1CCC(C)CC1`, 859 s; under `COC(=O)c1cnc2nc(-c3ccccc3)nn2c1C`, 832 s.
For the molecule `COC(=O)C1=C(C)NC(C)=C(C(=O)OCCN2CCN(C(c3ccccc3)c3ccccc3)CC2)C1c1cccc([N+](=O)[O-])c1` (centres undefined), the RP-LC retention time was 1020 s.
For `O=C(Nc1ccc(Br)cc1F)NC1CCN(c2ccc(F)cc2)C1=O` (centres undefined), the RP-LC retention time is 937 s.
As for `O=C(CCn1nnc2cc(-c3noc(C4CCCCC4)n3)ccc21)N1CCOCC1`, the figure is 891 s; as for `Cc1ccc(C2Cn3cnc(C(=O)N4CCC(C(=O)NCc5ccco5)CC4)c3CO2)cc1` (centres undefined), 729 s; as for `Cc1cccc(NC(=O)C2CCCN(c3ncnc4c3nc3n4CCCCC3)C2)n1` (centres undefined), 730 s.
`O=C(Cc1ccccc1)N1CCCC1c1nc(-c2ccccc2)no1` (centres undefined): the RP-LC retention time came to 949 s.
Molecule `COc1ccc(-c2nc(-c3ccc4c(c3)oc(=O)n4C(C)C)no2)cc1OC` gave an RP-LC retention time of 1070 s.
Molecule `COc1ccc(NC(=O)C2CCN(S(=O)(=O)c3c(C)[nH]c(C)c3C(=O)N3CCCC3)CC2)cc1` returned an RP-LC retention time of 693 s.
For the molecule `COc1ccc(OC)c(S(=O)(=O)N2CCC(C)(c3noc(C)n3)CC2)c1`, the RP-LC retention time came out at 866 s.
Take `COCCCNc1c(-c2cccc(F)c2)nc2sc(C(N)=O)c(C)n12`: the RP-LC retention time turned out to be 741 s.
As for `COc1ccc(C(=O)N2C[C@@H]3C[C@H]2C[C@@H]3NC(=O)c2cccs2)c(C)c1`, the RP-LC retention time turned out to be 741 s.
Under `COc1ccccc1C(CNC(=O)c1cc(=O)c2cc(Br)ccc2o1)N(C)C` (centres undefined) stands 651 s.
`CCOC(=O)C1=C(CN2CCC(c3ccc(C)cc3)C2)NC(=O)NC1c1cccc(OC)c1OC` (centres undefined) yielded an RP-LC retention time of 713 s.
For the molecule `CCOc1cccc(C2CC(c3ccccc3)=NC3(CCN(C(C)C)CC3)N2)c1O` (centres undefined), the RP-LC retention time is 612 s.
With `CS(=O)(=O)N1CCC(C(=O)NCC(O)c2ccc(C(F)(F)F)cc2)CC1` (centres undefined), the RP-LC retention time came out at 652 s.
Turning to `N#Cc1ccc(NC(=O)c2noc3c2CCCCC3)cc1`, the RP-LC retention time is 995 s.
Turning to `CC(C)Cc1csc(-c2csc(S(=O)(=O)NCc3ccc(F)cc3)c2)n1`, the RP-LC retention time is 1160 s.
The molecule `O=C(c1ccc(OC(F)(F)F)cc1)N1C[C@@H]2C[C@H]1C[C@@H]2NS(=O)(=O)c1cccnc1` yielded an RP-LC retention time of 761 s.
The molecule `Cc1ccccc1Nc1c(-c2ccccc2)nc2c(C)cccn12` had an RP-LC retention time of 733 s.
As for `COc1ccc(C2CC(=O)N(c3cc(C)cc(C)c3)C(=O)C2)cc1OC`, the figure is 891 s.
As for `CN1c2cc(C(=O)Nc3ccc(OC(F)(F)F)cc3)ccc2C(=O)N2CCCCC21` (centres undefined), the RP-LC retention time amounted to 1010 s.
Regarding `CC(=O)N1CCc2cc(N3CC(C(=O)Nc4ccccc4Cl)CC3=O)ccc21` (centres undefined), the RP-LC retention time amounted to 701 s.
For `CCCCN(C)C(=O)Cn1c(C2CCCN2C(C)=O)nc2ccccc21` (centres undefined), the RP-LC retention time stood at 627 s.
With `CCOC(=O)c1cnc(N2CCN(c3ccc(Cl)cc3)CC2)nc1C`, the RP-LC retention time is 1380 s.
In the case of `COc1cccc(CNC(=O)C2(C)CCCN(C(=O)Nc3cc(OC)cc(OC)c3)C2)c1` (centres undefined), the RP-LC retention time came out at 844 s.
As for `Cc1cc(C2CCCN2C(=O)Nc2ccccc2C)on1` (centres undefined), the RP-LC retention time stood at 748 s.
Molecule `COc1ccc(CCS(=O)(=O)NCC2(O)CCOCC2)cc1` returned an RP-LC retention time of 758 s.
As for `Cc1ccc(/C=C2\CNC/C(=C\c3ccc(C)cc3)C2=O)cc1`, the figure is 734 s.
Under `CCCNC(=O)N1c2ccccc2CC1c1nc(C(C)C)no1` (centres undefined) stands 910 s.
Under `O=C(c1nc(-c2ccnc(N3CCOCC3)c2)no1)N1CCN(C2CCCCC2)CC1` stands 608 s; under `Cc1cc(F)ccc1NC(=O)c1c(O)c2cccnc2n(-c2ccc(F)cc2)c1=O`, 1240 s.
Molecule `O=C(Nc1ccccc1)N1CCCC(Cn2c(C3CC3)nc3cccnc32)C1` (centres undefined) yielded an RP-LC retention time of 655 s.
`O=C(c1cccs1)N1CCc2ccc(NS(=O)(=O)c3ccccc3Cl)cc2C1` gave an RP-LC retention time of 804 s.
`CC(C)CCNc1ccc2nncn2n1`: the RP-LC retention time was 786 s.
As for `COc1ccc(NC(=O)Nc2cccn3c(C4CCC4)nnc23)c(C)c1`, the figure is 787 s.
